Measurements reported in US20240228537A1, “BLOCK COPOLYPEPTIDES AND USE THEREOF” (National Cheng Kung University, priority 2023, published 2024).

How the values were obtained:
LL2 tumor = test: Murine syngeneic LL2 lung tumor model; format: in vivo; conditions: LL2 tumor-bearing mice
Protocol: Briefly, LL2 cells that had been transfected with the luciferase reporter gene were inoculated subcutaneously into C57BL/6 mice.
LL2 cells (5×10^5) expressing a luciferase reporter were inoculated subcutaneously into the backs of C57BL/6 mice, as a lung cancer animal model. After 7 days, saline control or copolypeptides were injected intratumorally to start the beginning of the timeline (day zero). […] Tumor growth, body weight, and survival were closely monitored. Tumor volume was calculated using the following equation: (length of tumor)×(width of tumor)^2×0.45 by measuring the tumors in two perpendicular axes with a tissue caliper. Once the tumor volume reached 2,000 mm^3, the mice were sacrificed and subsequently recorded as dead. […] On day 12, mice were intraperitoneally injected with D-luciferin potassium salt (200 μL, 10 mg/mL, Thermo Fisher Scientific), followed by anesthesia with 2% isoflurane in order to perform in vivo bioluminescence imaging. An IVIS-200 Perkin Elmer system with its integrated acquisition and analysis software (Living Image V. 2.50) was performed to quantify the said signals. On day 32, an optical microscope was used to examine the number of pulmonary metastatic nodules.

[1] = Secondary conformation by circular dichroism (BeStSel fit); format: physicochemical; conditions: CD, 0.1 mg mL^−1 in DI water, neutral condition
Protocol: The BeStSel software (Beta Structure Selection) was used to compute the percentages of peptide chain conformation by fitting the CD spectra.
The MALDI-TOF MS spectrum of the side-chain protected peptide was recorded in the reflection mode of a MALDI-TOF spectrometer (Bruker Autoflex III TOF/TOF). […] For CD measurements, the concentration of peptide samples in DI water was 0.1 mg mL^−1. SAXS patterns of peptide solutions were recorded on a Bruker NanoSTAR U diffractometer with controlled voltage 45 kV and current 650 μA at room temperature under 4×10^−1 torr. The critical aggregation concentration (cac) of peptides was determined by measuring the pyrene emission spectra of various peptide solutions with an integration time of 1.0 sec using a Hitachi FL-4500 fluorescence spectrophotometer.

A549 cells = test: Membrane staining with 1,1′-diethyl-4,4′-carbocyanine iodide; format: cell-based; conditions: A549, 4 μM, 6 h
H1299 cells [2] = test: as above; format: cell-based; conditions: H1299, 4 μM, 6 h
E-cadherin = test: Immunoblot analysis in H1299 cells; format: cell-based; conditions: H1299, 24 h
Protocol: (§1) In the present disclosure, E-cadherin is one of the crucial molecules in cell-cell adhesion, participating in cancer progression.
(§2) The immunoblot analysis was conducted by treating H1299 cells with copolypeptides (4 μM) in the presence or absence of cisplatin (5 μM) for 24 h, followed by extraction using RIPA Lysis and Extraction Buffer (Thermo Fisher Scientific) and then separation by using 8% SDS-PAGE. Upon transferring onto NC membranes (0.22 μm) blocked in 5% fat-free dry milk, the proteins were incubated with primary antibodies against E-cadherin, caspase-3, poly(ADP-ribose) polymerase (PARP), and β-actin, followed by incubation with their appropriate secondary antibodies. An Immobilon Western Chemiluminescent HRP Substrate kit (Merck) was used to form visualized protein bands and the intensities of the protein bands were quantified using the Image J software (Image Processing and Analysis in Java) by normalizing to that of β-actin.

caspase-3, and PARP = test: Immunoblot analysis in H1299 cells; format: cell-based; conditions: H1299, 24 h
Protocol: as §1, §2

H1299 cells [3] = test: Cytotoxicity, CCK-8 assay; format: cell-based; conditions: H1299, linear copolypeptides, 0 to 100 μM
Protocol: The cytotoxicity of copolypeptides at various concentrations or in combination with cisplatin (5 μM) was evaluated by incubating with A549, BEAS-2B, and H1299 cells (5×10^3 cells/well) in 96-well plates for 24 h using 10% FBS DMEM as the medium. After adding CCK-8 reagent (Targetmol) dissolved in serum-free medium, the well plates were incubated at 37° C. for 1 h. Upon transferring the medium to fresh 96-well plates, the absorbance of each well was measured at 450 nm using a Microplate Spectrophotometer (BioTek). The percentages of viable cells were calculated by the below equation:
Cell viability (%)=(Absorbancetest cell−Absorbanceblank)/(Absorbancecontrol cell−Absorbanceblank)×100

[4] = tested on: H1299 (p53-deficient) cells; test: Transfection efficiency of copolypeptides/pDNA polyplexes; format: cell-based; conditions: H1299, relative to lipofectamine 2000
From the text: LysmBnCys5 copolypeptides (m=5, 10, and 15, i.e., SEQ ID NOs: 2, 5, and 3)) efficiently carried p53 gene (pcDNA3 p53 WT plasmid) into H1299 (p53-deficient) cells and enhanced chemotherapeutic treatment. […] Improved transfection efficiency was mainly attributed to optimal polyplex stability, determined by peptide charge density and rigidity. […] Moreover, treatment with both LysmBnCys5/p53 gene vector and cisplatin extended the survival rates of tumor-bearing mice.
FIGS. 22A-22B are results showing the p53 gene transfection efficiencies of various star-shaped copolypeptides to H1299 cells.
5.0 μM copolypeptides or 4.0 μL lipofectamine 2000 (Thermo Fisher Scientific) were mixed with 4.0 μg of plasmid DNA (pEGFP-C, Clontech) in 1 mL serum-free DMEM and left standing for 20 min. After cell concentration reached 2×10^5 cells/well in 6-well plates, the culture medium was replaced with 1 mL copolypeptides/DNA complexes (polyplexes) and incubated for 6 h. […] Green fluorescent protein (GFP) expression of transfected cells was examined under an inverted fluorescence microscope (IX71, Olympus). Quantitative evaluation of the transfection efficiency was also conducted using a flow cytometer (BD Biosciences). […] Transfection efficiency was then calculated as the percentage of cells expressing GFP, with the fluorescence of 2×10^4 cells evaluated by flow cytometry.

Compound: N.N.[Cl][Pt][Cl] [cisplatin]
- body weight loss (LL2 tumor): weight loss

Compound: LLLLLCCCCC [Lys5Cys5]
- Random coil (%) [1]: 32.0%
- ß-sheet/turn (%) [1]: 68.0%
- membrane staining with 1,1′-diethyl-4,4′-carbocyanine iodide (A549 cells): not
- membrane staining with 1,1′-diethyl-4,4′-carbocyanine iodide (H1299 cells [2]): not
- E-cadherin expression (E-cadherin): reduced E-cadherin expression
- caspase-3 and PARP expression (caspase-3, and PARP): triggered caspase-3, and PARP expression significantly

Compound: Lys10BnCys5: poly-L-lysine-block-poly-S-benzyl-L-cysteine, 10 and 5 residues
- cell viability (H1299 cells [3]): cell viability decreased with increasing concentration

Compound: Lys15BnCys5: poly-L-lysine-block-poly-S-benzyl-L-cysteine, 15 and 5 residues
- cell viability (H1299 cells [3]): cell viability decreased with increasing concentration
- transfection efficiency [4]: almost equivalent to that using lipofectamine 2000

Compound: poly-L-guanidinylated lysine [PLGL15]
- cell viability (H1299 cells [3]): cell viability decreased with increasing concentration

Compound: poly-L-lysine (LLLLLLLLLLLLLLL) [PLL15, poly-L-lysine, 15 residues]
- cell viability (H1299 cells [3]): cell viability decreased with increasing concentration
